Values of other authors as cited in PMC7941644, “Identification and Development of Therapeutics for COVID-19” (ArXiv, 2021).
Like-named read-outs stand apart in the source and are kept apart here.

Tests used:
[1] = system: COVID-19; set-up: method as in PMID 32445440
[2] = system: COVID-19; set-up: method as in PMID 32821939; conditions: moderate COVID-19
[3] = molecular target: MERS-CoV; conditions: cell culture assays
[4] = system: COVID-19; set-up: method as in PMID 32275812; conditions: of the 53 patients evaluated; 200 mg IV day 1, 100 mg/day for 9 days; no control group
[5] = molecular target: SARS-CoV-1; conditions: cell culture assays
[6] = system: COVID-19

In the case of `CCC(CC)COC(=O)[C@H](C)N[P@](=O)(OC[C@H]1O[C@@](C#N)(c2ccc3c(N)ncnn23)[C@H](O)[C@@H]1O)Oc1ccccc1` [remdesivir], the “hazard ratio for death by 14 days” value ([1]; 95% CI 0.36 to 0.83) is listed as 0.55, the “hazard ratio for death at day 29” value ([1]; 95% CI 0.52 to 1.03) is listed as 0.73 and the “rate ratio for recovery” value ([1]; 95% CI 1.12 to 1.49, p < 0.001) is listed as 1.29. The serious adverse events ([1]; 131 of 532 patients, placebo 31.6%) was 24.6%, the “rate ratio for recovery” value ([1]; patients with severe disease, 95% CI 1.12 to 1.52) was 1.31 and the recovery period ([1]; patients with severe disease, versus 18) was 11 days. The “Kaplan-Meier estimate of mortality by 14 days” value ([1]; placebo 11.9%) was 6.7%, the “Kaplan-Meier estimate of mortality at day 29” value ([1]; placebo 15.2%) was 11.4% and the median recovery time ([1]; placebo 15 days) was 10 days. The “effect of treatment for five days relative to standard of care” value [2] was “small effect of treatment”, the “IC50, polymerase and replication” value [3] was “submicromolar” and the clinical improvement [4] was 68%. For the same molecule, the “IC50, polymerase and replication” value [5] was “submicromolar”, the “patients who died during initial hospitalization” value ([6]; 2,750 patients in remdesivir group, control 303 of 2,708) was 301 and the “overall rate ratio for death” value ([6]; meta-analysis of Solidarity and three other remdesivir studies, p = 0.20) was 0.91. For the same molecule, the “rate ratio of in-hospital death” value ([6]; vs control, no placebo) was 0.95.
